Reference: patent US7279576B2 (Deciphera Pharmaceuticals, LLC, priority 2002, dated 2007)

Target: T1, nonphosphorylated Abl kinase (Homo sapiens, UniProt P00519)
T1 construct: purchased deCode Abl-2
Test: Abl kinase assay (continuous spectrophotometric, pyruvate kinase/lactate dehydrogenase coupled)
Type: biochemical
Conditions: for inhibition at 10 µM: read-out: % Inhi @ 10 uM
Protocol: A continuous spectrophotometric kinase assay is used, wherein the production of adenosine diphosphate is coupled to the oxidation of NADH and measured as a reduction in absorbance at 340 nm. For details see: Barker, S. C. et al, Biochemistry (1995) 34:14843; and Schindler, T. et al, Science (2000) 289:1938.
The reaction mixture (200 μl) contained Abl kinase (3.7 nM. Abl-2 from deCode), peptide substrate ([…], 0.5 mM), ATP (0.5 mM), MgCl2 (5 mM), pyruvate kinase (16 units), lactate dehydrogenase (26 units), phosphoenol pyruvate (1 mM), and NADH (0.28 mM) in 100 mM Tris buffer, pH 7.5. The reaction was initiated by adding ATP. The absorption at 340 nm was monitored continuously for 3 to 4 hours at 30° C. on Polarstar Optima plate reader (BMG). Under these conditions, a turn over number (kcat) of 1.4 s^−1 was obtained for the preparation of Abl kinase, which is similar to that (1.7 s^−1) reported for the nonphosphorylated enzyme (Brasher and Van Etten, JBC (2000) 275, 35631-35637). No autophosphorylation of Abl was observed under these conditions since the rate is constant throughout the entire reaction time and presumably because the concentration of the enzyme used is below the critical level (˜10 nM) needed for the autophosphorylation (Brasher and Van Etten, JBC (2000) 275, 35631-35637).
Percentage of inhibition in the presence of an inhibitor was obtained by comparison of reaction rate (or slope) with that of a control. IC50 value was calculated from a series of % inhibition values determined at a range of concentrations of the inhibitor using Prism.

T1 sequence (P00519 whole entry): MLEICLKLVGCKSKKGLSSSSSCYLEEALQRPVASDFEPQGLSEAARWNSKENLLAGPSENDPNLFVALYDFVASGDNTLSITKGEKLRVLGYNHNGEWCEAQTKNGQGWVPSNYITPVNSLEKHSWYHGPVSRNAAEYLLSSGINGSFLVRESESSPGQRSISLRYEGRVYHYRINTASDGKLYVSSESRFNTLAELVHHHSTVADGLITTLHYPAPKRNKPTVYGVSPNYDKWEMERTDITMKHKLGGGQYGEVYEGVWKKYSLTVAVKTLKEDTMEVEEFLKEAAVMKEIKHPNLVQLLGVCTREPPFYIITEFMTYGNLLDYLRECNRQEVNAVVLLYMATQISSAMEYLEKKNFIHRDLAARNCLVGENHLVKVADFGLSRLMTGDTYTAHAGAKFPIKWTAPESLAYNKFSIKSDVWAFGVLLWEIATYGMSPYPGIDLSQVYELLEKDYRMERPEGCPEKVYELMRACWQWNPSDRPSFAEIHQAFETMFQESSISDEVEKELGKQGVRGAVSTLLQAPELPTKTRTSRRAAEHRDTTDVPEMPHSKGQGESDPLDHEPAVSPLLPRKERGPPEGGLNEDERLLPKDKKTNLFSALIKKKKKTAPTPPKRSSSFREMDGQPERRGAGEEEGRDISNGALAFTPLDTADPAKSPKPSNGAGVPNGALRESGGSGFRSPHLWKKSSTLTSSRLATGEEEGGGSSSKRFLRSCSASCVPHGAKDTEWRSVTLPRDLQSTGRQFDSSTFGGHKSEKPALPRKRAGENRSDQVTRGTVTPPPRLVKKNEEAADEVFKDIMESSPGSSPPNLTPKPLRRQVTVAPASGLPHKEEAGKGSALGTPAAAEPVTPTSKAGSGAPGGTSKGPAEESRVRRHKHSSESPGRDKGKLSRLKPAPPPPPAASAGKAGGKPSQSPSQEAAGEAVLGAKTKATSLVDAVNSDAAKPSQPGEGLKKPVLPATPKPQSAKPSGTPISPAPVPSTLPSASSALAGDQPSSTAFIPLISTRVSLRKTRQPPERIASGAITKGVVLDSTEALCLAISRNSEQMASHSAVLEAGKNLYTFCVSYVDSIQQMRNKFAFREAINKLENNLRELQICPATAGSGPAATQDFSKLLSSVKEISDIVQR

| Structure (SMILES) | inhibition at 10 µM [%] | IC50 [µM] |
| --- | --- | --- |
| Cc1ccc(NC(=O)c2ccc(Cn3sc(=O)n(-c4ccccc4)c3=O)cc2)cc1Nc1nccc(-c2ccccc2)n1 [Example 9, N-(3-(4-phenylpyrimidin-2-ylamino)-4-methylphenyl)-4-((3,5-dioxo-4-phenyl-1,2,4-thiadiazolidin-2-yl)methyl)benzamide] | 42 |  |
| CNC(=O)CN(CC(=O)NC)C(=O)c1ccc(C(=O)Nc2ccc(C)c(Nc3ncccn3)c2)cc1 [Example 7, N^1,N^1-bis((methylcarbamoyl)methyl)-N^4-(4-methyl-3-(pyrimidin-2-ylamino)phenyl)terephthalamide] | 9 |  |
| Cc1ccc(NC(=O)c2ccc(CN3CC(=O)NS3(=O)=O)cc2)cc1Nc1nccc(-c2cccnc2)n1 [Example 10] | 16 |  |
| Cc1ccc(NC(=O)c2ccc(CN3CCS(=O)(=O)CC3)cc2)cc1Nc1ncccn1 [Example 13, 4-(((4,4-dioxothiomorpholinomethyl)1)methyl)-N-(4-methyl-3-(pyrimidin-2-ylamino)phenyl)benzamide] | 31 |  |
| Cc1ccc(NC(=O)c2ccc(CN3CC(=O)N(C)C3=O)cc2)cc1Nc1ncccn1 [Example 5, 4-((3-methyl-2,4-dioxoimidazolidin-1-yl)methyl)-N-(4-methyl-3-(pyrimidin-2-ylamino)phenyl)benzamide] | 9 |  |
| CNC(=O)CN(CC(=O)NC)C(=O)c1ccc(C(=O)Nc2ccc(C)c(Nc3nccc(-c4ccccc4)n3)c2)cc1 [Example 8, N^1,N^1-bis((methylcarbamoyl)methyl)-N^4-(3-(4-phenylpyrimidin-2-ylamino)4-methylphenyl)terephthalamide] | 20 |  |
| Cc1ccc(NC(=O)c2ccc(C(=O)N3C(=O)OC[C@@H]3c3ccccc3)cc2)cc1Nc1nccc(-c2ccccc2)n1 [Example 17, L-4-(2-oxo-4-phenyl-oxazolidine-3-carbonyl)-N-(4-methyl-3-(4-phenylpyrimidin-2-ylamino)phenyl)benzamide] | 18 |  |
| Cc1ccc(NC(=O)c2ccc(CN3CC(=O)NS3(=O)=O)cc2)cc1Nc1nccc(-c2ccccc2)n1 [Example 23] | 10 |  |
| Cc1ccc(NC(=O)c2ccc(C(=O)N3C(=O)OC[C@H]3c3ccccc3)cc2)cc1Nc1nccc(-c2cccnc2)n1 [Example 18, D-4-(2-oxo-4-phenyl-oxazolidine-3-carbonyl)-N-[4-methyl-3-(4-pyridin-3-yl-pyrimidin-2-ylamino)-phenyl]benzamide] | 70 | 3 |
| Cc1ccc(NC(=O)c2ccc(CNC(=O)NS(=O)(=O)N3CCCC3)cc2)cc1Nc1nccc(-c2ccccc2)n1 [Example 3] | 15 |  |
| Cc1ccc(NC(=O)c2ccc(Cn3c(=O)[nH]n(C)c3=O)cc2)cc1Nc1ncccn1 [Example 21, 4-((1-methyl-3,5-dioxo-1,2,4-triazolidin-4-yl)methyl)-N-(4-methyl-3-(pyrimidin-2-ylamino)phenyl)benzamide] | 12 |  |
| Cc1ccc(NC(=O)c2ccc(C(=O)N3C(=O)OC[C@@H]3c3ccccc3)cc2)cc1Nc1nccc(-c2cccnc2)n1 [Example 19, L-4-(2-oxo-4-phenyl-oxazolidine-3-carbonyl)-N-[4-methyl-3-(4-pyridin-3-yl-pyrimidin-2-ylamino)-phenyl]benzamide] | 75 | 4 |
| Cc1ccc(NC(=O)c2ccc(CNC(=O)NS(=O)(=O)N3CCCC3)cc2)cc1Nc1ncccn1 [Example 4] | 24 |  |
| Cc1ccc(NC(=O)c2ccc(CNS(=O)(=O)NC(=O)N3CCCC3)cc2)cc1Nc1nccc(-c2ccccc2)n1 [Example 1] | 10 |  |
| Cc1ccc(NC(=O)c2ccc(CN3C(=O)CNS3(=O)=O)cc2)cc1Nc1nccc(-c2ccccc2)n1 [Example 12, N-[4-Methyl-3-(4-phenyl-pyrimidin-2-ylamino)-phenyl]-4-(1,1,3-trioxo-[1,2,5]thiadiazolidin-2-ylmethyl)-benzamide] | 52 |  |
| Cc1ccc(NC(=O)c2ccc(C(=O)N3C(=O)OC[C@H]3c3ccccc3)cc2)cc1Nc1nccc(-c2ccccc2)n1 [Example 16, D-4-(2-oxo-4-phenyl-oxazolidine-3-carbonyl)-N-(4-methyl-3-(4-phenylpyrimidin-2-ylamino)phenyl)benzamide] | 9 |  |
| Cc1ccc(NC(=O)c2ccc(CNS(=O)(=O)NC(=O)N3CCCC3)cc2)cc1Nc1ncccn1 [Example 2] | 9 |  |
| Cc1ccc(NC(=O)c2ccc(CN3CC(=O)N(C)C3=O)cc2)cc1Nc1nccc(-c2ccccc2)n1 [Example 6, N-(3-(4-phenylpyrimidin-2-ylamino)-4-methylphenyl)-4-((3-methyl-2,4-dioxoimidazolidin-1-yl)methyl)benzamide] | 13 |  |
| Cc1ccc(NC(=O)c2ccc(CN3CCS(=O)(=O)CC3)cc2)cc1Nc1nccc(N2CCOCC2)n1 [Example 15, 4-(((4,4-dioxothiomorpholinomethyl)1)methyl)-N-(4-methyl-3-(4-morpholinopyrimidin-2-ylamino)phenyl)benzamide] | 7 |  |
